Bridge positions count the residues as written; N and C are the ends. Square brackets hold non-standard residues; d marks the D form. Peptide text beside a SMILES is read from it. hArg = N=C(N)NCCCC[C@H](N)C(=O)O; Ac5c = NC1(C(=O)O)CCCC1; Nva = CCC[C@H](N)C(=O)O; Abu = CC[C@H](N)C(=O)O; Aib = CC(C)(N)C(=O)O
Biological target: T1, Saos-2 PTH1R (Homo sapiens, UniProt Q03431)
T1 construct: endogenous in cells; host or cells: Saos-2
T1 sequence (Q03431 27-593): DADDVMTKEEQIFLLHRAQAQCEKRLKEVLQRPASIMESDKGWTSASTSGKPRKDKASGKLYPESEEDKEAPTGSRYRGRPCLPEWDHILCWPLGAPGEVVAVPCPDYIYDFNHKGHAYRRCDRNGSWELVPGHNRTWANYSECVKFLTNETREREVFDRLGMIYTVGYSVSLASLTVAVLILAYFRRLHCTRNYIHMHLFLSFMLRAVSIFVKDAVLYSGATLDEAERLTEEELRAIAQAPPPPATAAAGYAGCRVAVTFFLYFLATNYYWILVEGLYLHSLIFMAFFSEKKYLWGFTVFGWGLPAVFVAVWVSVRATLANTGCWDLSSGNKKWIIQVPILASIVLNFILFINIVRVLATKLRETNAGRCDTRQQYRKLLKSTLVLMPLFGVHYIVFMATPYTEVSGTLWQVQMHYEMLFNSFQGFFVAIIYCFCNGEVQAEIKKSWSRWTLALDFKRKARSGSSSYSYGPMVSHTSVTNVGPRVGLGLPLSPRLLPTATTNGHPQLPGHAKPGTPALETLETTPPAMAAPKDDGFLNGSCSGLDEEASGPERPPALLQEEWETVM
Experiment: cAMP-efficacy assay in Saos-2 cells
Assay type: cell-based
Conditions: for EC50: cAMP, 100 μM IBMX, 37° C. 15 min, suffix of label = salt tested; for Emax ± SEM: relative effect to the control (SEQ ID NO: 32)
Experimental: Peptides were dissolved in phosphate buffered saline and further diluted in Tyrode's buffer (TB, Sigma-Aldrich) containing 0.1% BSA and 100 μM isobutyl-methyl-xanthine (IBMX, Sigma-Aldrich). Saos-2 cells were seeded at 50,000 cells/well in 96-microtiter plates and grown for two days before the efficacy assays. On the day of analysis, the growth medium was carefully removed by suction. Cells were washed once with 200 μl TB/0.1% BSA. The buffer was replaced with 100 μl reaction mixture (±test peptide), and incubated at 37° C. for 15 min. The reaction was stopped by addition of 25 μl of ice-cold 0.5 M HCl. Cells were in the following incubated on ice for 60 min. 75 μl acetate-buffer, pH6.2, was added to each well of a 96-well cAMP FlashPlate (Perkin-Elmer). […] FlashPlates were incubated overnight at 4° C., emptied by suction and counted in a TopCounter (Packard).
Determinations were performed in single determinations or triplicates at all doses. […] Standards were included as single determinations, duplicates or triplicates in each experiment, preferentially on each plate.
Concentration-dependent cAMP responses were imported into GraphPad Prism vers. 4 (GraphPad Software), transformed and plotted. […] Thus, a four-parameter logistic equation was used for determination of the EC50 values. Curves were fitted with a function for sigmoidal dose response curve (variable slope) non-linear fit Y=Bottom+(Top-Bottom)/(1+10̂((LogEC50−X)*HillSlope)) where X is the logarithm of concentration and Y is the response. Y starts at Bottom and goes to Top with a sigmoid shape. pEC50, Hill-coefficient and the maximally inducible concentration of cAMP (Emax) were evaluated.
Overall statistical differences were analyzed with Statistica (Statsoft) using one-way ANOVA. Post-hoc comparisons were made by the use of Fisher's Least Significance Test. Results were considered significant, when p was lower than 0.05.

| Compound | EC50 | Emax ± SEM |
| --- | --- | --- |
| CC[C@H](NC(=O)[C@@H](NC(=O)C1(N)CCCC1)C(C)C)C(=O)N[C@@H](CCC(=O)O)C(=O)N[C@H](C(=O)N[C@@H](CCC(N)=O)C(=O)N[C@@H](CC(C)C)C(=O)N[C@@H](CC(C)C)C(=O)N[C@@H](Cc1c[nH]cn1)C(=O)N[C@@H](CCC(N)=O)C(=O)N[C@@H](CCCCNC(=N)N)C(=O)N[C@@H](C)C(=O)N[C@H]1CCCCNC(=O)C[C@@H](C(N)=O)NC(=O)[C@H](CC(N)=O)NC(=O)[C@H](CC(C)C)NC(=O)[C@H](Cc2c[nH]c3ccccc23)NC1=O)[C@@H](C)CC [SEQ ID NO: 15, H-Ac5c-Val-Abu-Glu-Ile-Gln-Leu-Leu-His-Gln-Har-Ala-Lys( )-Trp-Leu-Asn-Asp( )-NH2] (H-[Ac5c]V[Abu]EIQLLHQ[hArg]AKWLND-NH2; lactam 13-17) | 60.3 nM | 1.04 ± 0.03 |
| CCC[C@H](NC(=O)[C@@H](NC(=O)C1(N)CCCC1)C(C)C)C(=O)N[C@@H](CCC(=O)O)C(=O)N[C@H](C(=O)N[C@@H](CCC(N)=O)C(=O)N[C@@H](CC(C)C)C(=O)N[C@@H](CC(C)C)C(=O)N[C@@H](Cc1c[nH]cn1)C(=O)N[C@@H](CCC(N)=O)C(=O)N[C@@H](CCCCNC(=N)N)C(=O)N[C@@H](C)C(=O)N[C@H]1CCCCNC(=O)C[C@@H](C(N)=O)NC(=O)[C@H](CC(N)=O)NC(=O)[C@H](CC(C)C)NC(=O)[C@H](Cc2c[nH]c3ccccc23)NC1=O)[C@@H](C)CC [SEQ ID NO: 16, H-Ac5c-Val-Nva-Glu-Ile-Gln-Leu-Leu-His-Gln-Har-Ala-Lys( )-Trp-Leu-Asn-Asp( )-NH2] (H-[Ac5c]V[Nva]EIQLLHQ[hArg]AKWLND-NH2; lactam 13-17) | 120 nM | 1.03 ± 0.04 |
| CC[C@H](C)[C@H](NC(=O)[C@H](CCC(=O)O)NC(=O)C(C)(C)NC(=O)[C@@H](NC(=O)C1(N)CCCC1)C(C)C)C(=O)N[C@@H](CCC(N)=O)C(=O)N[C@@H](CC(C)C)C(=O)N[C@@H](CC(C)C)C(=O)N[C@@H](Cc1c[nH]cn1)C(=O)N[C@@H](CCC(N)=O)C(=O)N[C@@H](CCCCNC(=N)N)C(=O)N[C@@H](C)C(=O)N[C@H]1CCCCNC(=O)C[C@@H](C(N)=O)NC(=O)[C@H](CC(=O)O)NC(=O)[C@H](CC(C)C)NC(=O)[C@H](Cc2c[nH]c3ccccc23)NC1=O [SEQ ID NO: 22, H-Ac5c-Val-Aib-Glu-Ile-Gln-Leu-Leu-His-Gln-Har-Ala-Lys( )-Trp-Leu-Asp-Asp( )-NH2] (H-[Ac5c]V[Aib]EIQLLHQ[hArg]AKWLDD-NH2; lactam 13-17) | 74.1 nM | 1.08 ± 0.04 |
| CC[C@H](C)[C@H](NC(=O)[C@H](CCC(=O)O)NC(=O)C(C)(C)NC(=O)[C@@H](NC(=O)C1(N)CCCC1)C(C)C)C(=O)N[C@@H](CCC(N)=O)C(=O)N[C@@H](CC(C)C)C(=O)N[C@@H](CCSC)C(=O)N[C@@H](Cc1c[nH]cn1)C(=O)N[C@@H](CCC(N)=O)C(=O)N[C@@H](CCCCNC(=N)N)C(=O)N[C@@H](C)C(=O)N[C@H]1CCCCNC(=O)C[C@@H](C(N)=O)NC(=O)[C@H](CC(=O)O)NC(=O)[C@H](CC(C)C)NC(=O)[C@H](Cc2c[nH]c3ccccc23)NC1=O [SEQ ID NO: 23, H-Ac5c-Val-Aib-Glu-Ile-Gln-Leu-Met-His-Gln-Har-Ala-Lys( )-Trp-Leu-Asp-Asp( )-NH2] (H-[Ac5c]V[Aib]EIQLMHQ[hArg]AKWLDD-NH2; lactam 13-17) | 33.1 nM | 1.16 ± 0.08 |
| CC[C@H](C)[C@H](NC(=O)[C@H](CCC(=O)O)NC(=O)C(C)(C)NC(=O)[C@@H](NC(=O)C1(N)CCCC1)C(C)C)C(=O)N[C@@H](CCC(N)=O)C(=O)N[C@@H](CC(C)C)C(=O)N[C@@H](CCSC)C(=O)N[C@@H](Cc1c[nH]cn1)C(=O)N[C@@H](CCC(N)=O)C(=O)N[C@@H](CCCNC(=N)N)C(=O)N[C@@H](C)C(=O)N[C@H]1CCCCNC(=O)C[C@@H](C(N)=O)NC(=O)[C@H](CC(N)=O)NC(=O)[C@H](CC(C)C)NC(=O)[C@H](Cc2c[nH]c3ccccc23)NC1=O [SEQ ID NO: 25] (H-[Ac5c]V[Aib]EIQLMHQRAKWLND-NH2; lactam 13-17) | 8.91 nM | 1.04 ± 0.03 |
| CC[C@H](C)[C@H](NC(=O)[C@H](CCC(=O)O)NC(=O)C(C)(C)NC(=O)[C@@H](NC(=O)C1(N)CCCC1)C(C)C)C(=O)N[C@@H](CCC(N)=O)C(=O)N[C@@H](CC(C)C)C(=O)N[C@@H](CCSC)C(=O)N[C@@H](Cc1c[nH]cn1)C(=O)N[C@@H](CCC(N)=O)C(=O)N[C@@H](CCCCNC(=N)N)C(=O)N[C@@H](C)C(=O)N[C@H]1CCCCNC(=O)C[C@@H](C(N)=O)NC(=O)[C@H](CC(N)=O)NC(=O)[C@H](CC(C)C)NC(=O)[C@H](Cc2ccccc2)NC1=O [SEQ ID NO: 26, H-Ac5c-Val-Aib-Glu-Ile-Gln-Leu-Met-His-Gln-Har-Ala-Lys( )-Phe-Leu-Asn-Asp( )-NH2] (H-[Ac5c]V[Aib]EIQLMHQ[hArg]AKFLND-NH2; lactam 13-17) | 12.6 nM | 1.08 ± 0.09 |
| CC[C@H](C)[C@H](NC(=O)[C@H](CCC(=O)O)NC(=O)C(C)(C)NC(=O)[C@@H](NC(=O)C1(N)CCCC1)C(C)C)C(=O)N[C@@H](CCC(N)=O)C(=O)N[C@@H](Cc1ccccc1)C(=O)N[C@@H](CC(C)C)C(=O)N[C@@H](Cc1c[nH]cn1)C(=O)N[C@@H](CCC(N)=O)C(=O)N[C@@H](CCCCNC(=N)N)C(=O)N[C@@H](C)C(=O)N[C@H]1CCCCNC(=O)C[C@@H](C(N)=O)NC(=O)[C@H](CC(N)=O)NC(=O)[C@H](CC(C)C)NC(=O)[C@H](Cc2c[nH]c3ccccc23)NC1=O [SEQ ID NO: 27, H-Ac5c-Val-Aib-Glu-Ile-Gln-Phe-Leu-His-Gln-Har-Ala-Lys( )-Trp-Leu-Asn-Asp( )-NH2] (H-[Ac5c]V[Aib]EIQFLHQ[hArg]AKWLND-NH2; lactam 13-17) | 12.3 nM | 0.92 ± 0.06 |
| CC[C@H](C)[C@H](NC(=O)[C@H](CCC(=O)O)NC(=O)C(C)(C)NC(=O)[C@@H](NC(=O)C1(N)CCCC1)C(C)C)C(=O)N[C@@H](CCC(N)=O)C(=O)N[C@@H](CC(C)C)C(=O)N[C@@H](CC(C)C)C(=O)N[C@@H](Cc1c[nH]cn1)C(=O)N[C@@H](CCC(N)=O)C(=O)N[C@@H](CCCCNC(=N)N)C(=O)N[C@@H](CCCNC(=N)N)C(=O)N[C@H]1CCCCNC(=O)C[C@@H](C(N)=O)NC(=O)[C@H](CC(N)=O)NC(=O)[C@H](CC(C)C)NC(=O)[C@H](Cc2c[nH]c3ccccc23)NC1=O [SEQ ID NO: 28, H-Ac5c-Val-Aib-Glu-Ile-Gln-Leu-Leu-His-Gln-Har-Arg-Lys( )-Trp-Leu-Asn-Asp( )-NH2] (H-[Ac5c]V[Aib]EIQLLHQ[hArg]RKWLND-NH2; lactam 13-17) | 5.37 nM | 0.95 ± 0.06 |
| CC[C@H](C)[C@H](NC(=O)[C@H](CCC(=O)O)NC(=O)C(C)(C)NC(=O)[C@@H](NC(=O)C1(N)CCCC1)C(C)C)C(=O)N[C@@H](CCC(=O)O)C(=O)N[C@@H](CC(C)C)C(=O)N[C@@H](CC(C)C)C(=O)N[C@@H](Cc1c[nH]cn1)C(=O)N[C@@H](CCC(N)=O)C(=O)N[C@@H](CCCCNC(=N)N)C(=O)N[C@@H](C)C(=O)N[C@H]1CCCCNC(=O)C[C@@H](C(N)=O)NC(=O)[C@H](CC(N)=O)NC(=O)[C@H](CC(C)C)NC(=O)[C@H](Cc2c[nH]c3ccccc23)NC1=O [SEQ ID NO: 29, H-Ac5c-Val-Aib-Glu-Ile-Glu-Leu-Leu-His-Gln-Har-Ala-Lys( )-Trp-Leu-Asn-Asp( )-NH2] (H-[Ac5c]V[Aib]EIELLHQ[hArg]AKWLND-NH2; lactam 13-17) | 112 nM | 1.27 ± 0.20 |
| CC[C@H](C)[C@H](NC(=O)[C@H](CCC(=O)O)NC(=O)C(C)(C)NC(=O)[C@@H](NC(=O)C1(N)CCCC1)C(C)C)C(=O)N[C@@H](CCC(N)=O)C(=O)N[C@@H](CC(C)C)C(=O)N[C@@H](CCSC)C(=O)N[C@@H](Cc1c[nH]cn1)C(=O)N[C@@H](CC(N)=O)C(=O)N[C@@H](CC(C)C)C(=O)NCC(=O)N[C@@H](CCCCN)C(=O)N[C@@H](Cc1c[nH]cn1)C(=O)N[C@@H](CC(C)C)C(=O)N[C@@H](CC(N)=O)C(=O)N[C@@H](CO)C(N)=O [SEQ ID NO: 35] (H-[Ac5c]V[Aib]EIQLMHNLGKHLNS-NH2) | 8130 nM | 1.20 ± 0.01 |

From patent US20100048462A1, “TRUNCATED PTH PEPTIDES WITH A CYCLIC CONFORMATION” (Zealand Pharma A/S, priority 2006, published 2010)
